# Reference: US20180370912A1, “COMPOUNDS AND METHODS FOR TREATING DISEASES MEDIATED BY PROTEIN DISULFIDE ISOMERASE” (Beth Israel Deaconess Medical Center, Inc., priority 2017, published 2018)
# Assays:
# [1] = molecular target: T1, PDI fragments abb′ and b′xa′ (Homo sapiens, UniProt P07237); assay: Di-eosin-GSSG reductase assay of PDI fragments; assay type: biochemical; conditions: 30 μM, FIG. 5a
# T1 construct: abb′ (residues 1-331), or b′xa′ (residues 219-462); His; made in house; host or cells: Escherichia coli Origami B (DE3), pET-15b
# T1 sequence (P07237 18-348): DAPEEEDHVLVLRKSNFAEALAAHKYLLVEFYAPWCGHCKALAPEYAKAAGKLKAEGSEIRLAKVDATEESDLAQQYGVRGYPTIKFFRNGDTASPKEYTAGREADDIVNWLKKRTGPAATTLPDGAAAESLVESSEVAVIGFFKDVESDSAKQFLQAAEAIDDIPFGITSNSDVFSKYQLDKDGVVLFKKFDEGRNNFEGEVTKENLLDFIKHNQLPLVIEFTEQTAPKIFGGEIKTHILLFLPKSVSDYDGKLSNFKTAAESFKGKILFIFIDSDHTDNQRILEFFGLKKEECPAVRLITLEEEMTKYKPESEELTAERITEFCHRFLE
# Procedure: (§1) The probe di-eosin glutathione disulfide, di-eosin-GSSG, was prepared as previously described in Raturi, A., Vacratsis, P. O., Seslija, D., Lee, L. & Mutus, B., Biochem J 391, 351-357 (2005). Reductase activity of purified thiol isomerases and PDI domains was monitored in a 96-well fluorescence plate format. PDI, AGHA-PDI, ERpS, ERp57, ERp72 and PDI domains were assayed at 50 nM in the presence or absence of the indicated small molecules, peptides or cathepsin G. The assay included 100 mM potassium phosphate (pH 7.4) containing 2 mM EDTA, 5 μM DTT and 150 nM of the di-eosin GSSG probe. The increase in fluorescence was determined for 20 minutes by excitation at 520 nm and emission at 550 nm in a Synergy Biotek 4. The reduction of 150 nM di-eosin-GSSG by 5 μM DTT in the presence or absence of mentioned small molecules, peptides or proteins served as a negative control.
# [2] = molecular target: T2, PDI mutant in which the CGHC motif is mutated to AGHA (Homo sapiens, UniProt P07237, C397A/C400A/C53A/C56A); assay: Di-eosin-GSSG disulfide reductase assay, catalytically inactive mutant; assay type: biochemical; conditions: FIG. 1c
# T2 sequence (P07237 18-508 C53A/C56A/C397A/C400A): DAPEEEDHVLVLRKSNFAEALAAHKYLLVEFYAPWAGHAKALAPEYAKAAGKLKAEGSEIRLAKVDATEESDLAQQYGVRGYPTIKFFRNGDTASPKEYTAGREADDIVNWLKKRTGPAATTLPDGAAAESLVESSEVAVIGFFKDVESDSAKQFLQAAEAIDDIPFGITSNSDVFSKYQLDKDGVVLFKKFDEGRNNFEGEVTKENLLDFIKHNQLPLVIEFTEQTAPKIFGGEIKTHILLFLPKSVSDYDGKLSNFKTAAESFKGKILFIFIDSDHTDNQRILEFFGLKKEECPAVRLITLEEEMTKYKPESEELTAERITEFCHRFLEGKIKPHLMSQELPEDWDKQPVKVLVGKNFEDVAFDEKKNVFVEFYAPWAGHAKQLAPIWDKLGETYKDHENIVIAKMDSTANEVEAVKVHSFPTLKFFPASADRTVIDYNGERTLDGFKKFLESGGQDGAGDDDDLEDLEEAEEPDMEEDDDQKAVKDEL
# Procedure: as §1
# [3] = test system: platelet accumulation at sites of laser-induced injury; assay: Thrombus formation in cremaster arterioles after laser-induced injury, intravital microscopy; assay type: in vivo; conditions: mice
# Procedure: Intravital video microscopy of the cremaster muscle microcirculation was performed as described previously in Falati, S., Gross, P., Merrill-Skoloff, G., Furie, B. C. & Furie, Nat Med 8, 1175-81. (2002); and Jasuj a, R. et al., J Clin Invest 122, 2104-2113 (2012). Digital images were captured with an Orca Flash 4.0v2 sCMOS camera (Hamamatsu Photonics K.K., Shizuoka Pref., Japan). Representative images are presented, but the median curves include the full data. The kinetics of platelet thrombus formation were analyzed by determining median fluorescence values over time in ˜30-40 thrombi in three mice.
# Two hours prior to surgery, 100 mg/kg of the suicide P450 inhibitor 1-aminobenzotriazole (ABT) was administered intraperioneally to each mouse. The cremaster muscle was then surgically exposed. Prior to arteriolar wall injury, DyLight-labeled antibodies were infused intravenously together with drug or vehicle control. Injury to a cremaster arteriolar vessel (30-50-μm diameter) was induced with a MicroPoint laser system Andor Andor Technology, Ltd., Belfast Ireland) focused through the microscope objective, parfocal with the focal plane and tuned to 440 nm through a dye cell containing 5 mM coumarin in methanol. Data were captured digitally from two fluorescence channels, 488/520 nm and 647/670 nm, as well as a brightfield channel Data acquisition was initiated both prior to and following an ablation laser pulse for each injury. The microscope system was controlled and images were collected and analyzed using SlideBook 6.0 (Intelligent Imaging Innovations, Denver, Colo.).
# Prior to induction of the thrombus but after injection of the fluorescently labeled antibody, approximately 30 time points were recorded. Subsequently, a thrombus is initiated and recorded for approximately 170 seconds. […] The mean of maximal intensity values in the upstream region for each frame is calculated and used as the threshold to define those pixels containing signal. […] Using this information, the actual integrated intensity for each frame is calculated according to the following formula: […]
smiles,measurement,setting,value
CCOC(=O)c1c(CNCCN(CC)CC)n(-c2ccccc2)c2cc(Br)c(O)cc12 [bepristat 2a],di-eosin-GSSG cleavage by abb′ fragment,[1],failed to augment activity
same,augmentation of activity of catalytically inactive PDI (AGHA),[2],fails to augment activity
same,tolerability in vivo,[3]; 15 mg/kg infusion,tolerated in vivo
same,inhibition of platelet accumulation at sites of laser-induced injury,"[3]; infusion 15 mg/kg body weight, p=0.02, FIG. 3c",14.9 % of controls
same,thrombus formation in vivo,[3]; laser injury of cremaster arterioles,potently inhibits thrombus formation
